Among the data in patent US20130165450A1, “Novel Thiazol-Carboximide Derivatives as PDK1 Inhibitors” (priority 2010, published 2013) are IC50 values, retold here.

In one assay the target is T1, recombinant human PDK1 (amino acids 51-556) (Homo sapiens, UniProt O15530).
T1 construct: containing amino acids 51-556 of the human PDK1 enzyme; made in house
T1 sequence (O15530 51-556): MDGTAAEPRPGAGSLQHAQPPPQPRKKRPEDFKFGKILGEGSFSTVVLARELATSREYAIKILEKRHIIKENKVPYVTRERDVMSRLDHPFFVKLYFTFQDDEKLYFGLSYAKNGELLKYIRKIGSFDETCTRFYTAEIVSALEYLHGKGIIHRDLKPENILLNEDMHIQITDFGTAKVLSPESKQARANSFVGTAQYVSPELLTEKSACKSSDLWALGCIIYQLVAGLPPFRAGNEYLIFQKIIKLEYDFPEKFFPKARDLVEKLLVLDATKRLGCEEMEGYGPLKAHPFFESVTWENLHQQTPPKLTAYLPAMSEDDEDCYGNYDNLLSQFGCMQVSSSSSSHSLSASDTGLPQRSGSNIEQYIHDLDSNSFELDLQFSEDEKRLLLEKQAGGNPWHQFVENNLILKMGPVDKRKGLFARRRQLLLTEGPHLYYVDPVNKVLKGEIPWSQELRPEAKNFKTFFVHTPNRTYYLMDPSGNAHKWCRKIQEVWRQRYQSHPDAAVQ
As to the kind of experiment: PDK1 IMAP fluorescence polarization kinase assay. The class given is biochemical. Particulars: 10 nM PDK1, 100 nM peptide substrate, 100 nM PIFtide, 2.5 uM ATP, 1.5 hours; numeric values. (In general: Polarisation of emitted light reports the rotation of a fluorescent probe.)
As for `Nc1ccc(N2CCC[C@@H](N)C2)c(NC(=O)c2csc(-c3cnn(Cc4cccs4)c3)n2)c1` [Compound 1, N-[5-amino-2-(3(R)-amino-1-piperidinyl)phenyl]-2-[1-(2-thienylmethyl)-1H-pyrazol-4-yl]-4-thiazolecarboxamide], the IC50 was determined as 7 nM.

For the compound `CNC1(C(N)=O)CCN(c2ccc(N)cc2NC(=O)c2csc(-c3cnn(Cc4cccs4)c3)n2)CC1` [Compound 5, 1-[4-amino-2-[[[2-[1-(2-thienylmethyl)-1H-pyrazol-4-yl]-4-thiazolyl]carbonyl]amino]phenyl]-4-(methylamino)-4-piperidinecarboxamide], the half-inhibitory concentration (IC50) was found to be 81 nM. Take `Nc1ccc(N2CCC3(CCCNC3)CC2)c(NC(=O)c2csc(-c3cnn(Cc4cccs4)c3)n2)c1` [Compound 7, N-[5-amino-2-(2,9-diazaspiro[5.5]undec-9-yl)phenyl]-2-[1-(2-thienylmethyl)-1H-pyrazol-4-yl]-4-thiazolecarboxamide]: the IC50 is 60 nM.

The assay is the same for the next values; noted with them: 10 nM PDK1, 100 nM peptide substrate, 100 nM PIFtide, 2.5 uM ATP, 1.5 hours; rated A-D.
`CN(C)CCCn1cc(-c2nc(C(=O)Nc3cc(N)ccc3N3CCC[C@@H](N)C3)cs2)cn1` [Compound 2, N-[5-amino-2-(3(R)-amino-1-piperidinyl)phenyl]-2-[1-[3-(dimethylamino)propyl]-1H-pyrazol-4-yl]-4-thiazolecarboxamide]: the half-maximal inhibitory concentration (IC50) was 251 to 1000 nM. The same measure, in the same setting: under `Nc1ccc(N2CCC[C@@H](N)C2)c(NC(=O)c2csc(-c3cnn(Cc4ccccc4)c3)n2)c1` [Compound 3, N-[5-amino-2-(3(R)-amino-1-piperidinyl)phenyl]-2-[1-(phenylmethyl)-1H-pyrazol-4-yl]-4-thiazolecarboxamide] stands 1 to 50 nM; under `Nc1ccc(N2CCC[C@@H](N)C2)c(NC(=O)c2csc(-c3cnn(CCN4CCOCC4)c3)n2)c1` [Compound 4, N-[5-amino-2-(3(R)-amino-1-piperidinyl)phenyl]-2-[1-[2-(4-morpholinyl)ethyl]-1H-pyrazol-4-yl]-4-thiazolecarboxamide], 251 to 1000 nM; under `NCC1CCN(c2c(F)cccc2NC(=O)c2csc(-c3cnn(Cc4cccs4)c3)n2)CC1` [Compound 6, N-[2-[4-(aminomethyl)-1-piperidinyl]-3-fluorophenyl]-2-[1-(2-thienylmethyl)-1H-pyrazol-4-yl]-4-thiazolecarboxamide], 51 to 250 nM. `NCC1CCN(c2ccc(N)cc2NC(=O)c2csc(-c3cnn(Cc4cccs4)c3)n2)CC1` [Compound 8, N-[5-amino-2-[4-(aminomethyl)-1-piperidinyl]phenyl]-2-[1-(2-thienylmethyl)-1H-pyrazol-4-yl]-4-thiazolecarboxamide]: the IC50 was in the range of 1 to 50 nM.

For `Nc1ccc(N2CCC[C@@H](N)C2)c(NC(=O)c2csc(-c3cnn(Cc4ccncc4)c3)n2)c1` [Compound 9, N-[5-amino-2-(3(R)-amino-1-piperidinyl)phenyl]-2-[1-(4-pyridinylmethyl)-1H-pyrazol-4-yl]-4-thiazolecarboxamide], the IC50 fell in the range of 51 to 250 nM. `Nc1ccc(N2CC[C@@H](N)C2)c(NC(=O)c2csc(-c3cnn(Cc4cccs4)c3)n2)c1` [Compound 10, N-[5-amino-2-(3(R)-amino-1-pyrrolidinyl)phenyl]-2-[1-(2-thienylmethyl)-1H-pyrazol-4-yl]-4-thiazolecarboxamide]: the IC50 was 1 to 50 nM. Take `CCOC(=O)C1CCCN(c2ccc(N)cc2NC(=O)c2csc(-c3cnn(Cc4cccs4)c3)n2)C1` (stereo not shown) [Compound 11, ethyl 1-[4-amino-2-[[[2-[1-(2-thienylmethyl)-1H-pyrazol-4-yl]-4-thiazolyl]carbonyl]amino]phenyl]-3-piperidinecarboxylate]: the IC50 is greater than 1000 nM.

Take `CCOC(=O)C1CCN(c2ccc(N)cc2NC(=O)c2csc(-c3cnn(Cc4cccs4)c3)n2)CC1` [Compound 12, ethyl 1-[4-amino-2-[[[2-[1-(2-thienylmethyl)-1H-pyrazol-4-yl]-4-thiazolyl]carbonyl]amino]phenyl]-4-piperidinecarboxylate]: the IC50 was in the range of 251 to 1000 nM. As to `Nc1ccc(N2CCC[C@@H](N)C2)c(NC(=O)c2csc(-c3cnn(Cc4ccccn4)c3)n2)c1` [Compound 13, N-[5-amino-2-(3(R)-amino-1-piperidinyl)phenyl]-2-[1-(2-pyridinylmethyl)-1H-pyrazol-4-yl]-4-thiazolecarboxamide], the IC50 fell in the range of 1 to 50 nM.

For `Nc1ccc(N2CCC[C@@H](N)C2)c(NC(=O)c2csc(-c3cnn(Cc4ccc(F)c(F)c4)c3)n2)c1` [Compound 14, N-[5-amino-2-(3(R)-amino-1-piperidinyl)phenyl]-2-[1-[(3,4-difluorophenyl)methyl]-1H-pyrazol-4-yl]-4-thiazolecarboxamide], the IC50 fell in the range of 1 to 50 nM. In the case of `Nc1ccc(N2CCC3(CC2)OCCO3)c(NC(=O)c2csc(-c3cnn(Cc4cccc(F)c4)c3)n2)c1` [Compound 15, N-[5-amino-2-(1,4-dioxa-8-azaspiro[4.5]dec-8-yl)phenyl]-2-[1-[(3-fluorophenyl)methyl]-1H-pyrazol-4-yl]-4-thiazolecarboxamide], the half-inhibitory concentration (IC50) fell in the range of 1 to 50 nM. For the compound `Nc1ccc(N2CCC[C@@H](N)C2)c(NC(=O)c2csc(-c3cnn(Cc4cc(F)cc(F)c4)c3)n2)c1` [Compound 16, N-[5-amino-2-(3(R)-amino-1-piperidinyl)phenyl]-2-[1-[(3,5-difluorophenyl)methyl]-1H-pyrazol-4-yl]-4-thiazolecarboxamide], the concentration for half-maximal inhibition (IC50) lay in the range of 1 to 50 nM. For the compound `Nc1ccc(N2CCC[C@@H](N)C2)c(NC(=O)c2csc(-c3cnn(CCc4ccccc4)c3)n2)c1` [Compound 17, N-[5-amino-2-(3(R)-amino-1-piperidinyl)phenyl]-2-[1-(2-phenylethyl)-1H-pyrazol-4-yl]-4-thiazolecarboxamide], the IC50 fell in the range of 1 to 50 nM. For the compound `Nc1ccc(N2CCC[C@@H](N)C2)c(NC(=O)c2csc(-c3cnn(Cc4cccnc4)c3)n2)c1` [Compound 18, N-[5-amino-2-(3(R)-amino-1-piperidinyl)phenyl]-2-[1-(3-pyridinylmethyl)-1H-pyrazol-4-yl]-4-thiazolecarboxamide], the IC50 fell in the range of 1 to 50 nM. On the same count and under the same terms, for `Nc1ccc(N2CCC[C@@H](N)C2)c(NC(=O)c2csc(-c3cnn(Cc4cccc(F)c4)c3)n2)c1` [Compound 19, N-[5-amino-2-(3(R)-amino-1-piperidinyl)phenyl]-2-[1-[(3-fluorophenyl)methyl]-1H-pyrazol-4-yl]-4-thiazolecarboxamide] the value was 1 to 50 nM; for `Nc1ccc(N2CCC3(CCCNC3)CC2)c(NC(=O)c2csc(-c3cnn(Cc4ccccn4)c3)n2)c1` [Compound 20, N-[5-amino-2-(2,9-diazaspiro[5.5]undec-9-yl)phenyl]-2-[1-(2-pyridinylmethyl)-1H-pyrazol-4-yl]-4-thiazolecarboxamide], 51 to 250 nM; for `Nc1ccc(N2CCC[C@@H](N)C2)c(NC(=O)c2csc(-c3cnn(Cc4ccccc4F)c3)n2)c1` [Compound 21, N-[5-amino-2-(3(R)-amino-1-piperidinyl)phenyl]-2-[1-[(2-fluorophenyl)methyl]-1H-pyrazol-4-yl]-4-thiazolecarboxamide], 1 to 50 nM.

Regarding `Nc1ccc(N2CCC[C@@H](N)C2)c(NC(=O)c2csc(-c3cnn(Cc4cc(F)ccc4F)c3)n2)c1` [Compound 22, N-[5-amino-2-(3(R)-amino-1-piperidinyl)phenyl]-2-[1-[(2,5-difluorophenyl)methyl]-1H-pyrazol-4-yl]-4-thiazolecarboxamide], the IC50 was in the range of 1 to 50 nM.

Take `N[C@@H]1CCCN(c2c(F)cccc2NC(=O)c2csc(-c3cnn(Cc4cccs4)c3)n2)C1` [Compound 23, N-[2-(3(R)-amino-1-piperidinyl)-3-fluorophenyl]-2-[1-(2-thienylmethyl)-1H-pyrazol-4-yl]-4-thiazolecarboxamide]: the IC50 lay in the range of 1 to 50 nM.

For the compound `NCC1CCN(c2ccc(N)cc2NC(=O)c2csc(-c3cnn(Cc4ccccn4)c3)n2)CC1` [Compound 24, N-[5-amino-2-[4-(aminomethyl)-1-piperidinyl]phenyl]-2-[1-(2-pyridinylmethyl)-1H-pyrazol-4-yl]-4-thiazolecarboxamide], the IC50 is 51 to 250 nM. Turning to `N[C@@H]1CCCN(c2c(F)cccc2NC(=O)c2csc(-c3cnn(Cc4ccccc4)c3)n2)C1` [Compound 25, N-[2-(3(R)-amino-1-piperidinyl)-3-fluorophenyl]-2-[1-(phenylmethyl)-1H-pyrazol-4-yl]-4-thiazolecarboxamide], the IC50 fell in the range of 51 to 250 nM. Take `COCCn1cc(-c2nc(C(=O)Nc3cc(N)ccc3N3CCC[C@@H](N)C3)cs2)cn1` [Compound 26, N-[5-amino-2-(3(R)-amino-1-piperidinyl)phenyl]-2-[1-(2-methoxyethyl)-1H-pyrazol-4-yl]-4-thiazolecarboxamide]: the IC50 was 1 to 50 nM. Take `N[C@@H]1CCCN(c2c(F)cccc2NC(=O)c2csc(-c3cnn(Cc4ccccn4)c3)n2)C1` [Compound 27, N-[2-(3(R)-amino-1-piperidinyl)-3-fluorophenyl]-2-[1-(2-pyridinylmethyl)-1H-pyrazol-4-yl]-4-thiazolecarboxamide]: the concentration for half-maximal inhibition (IC50) was in the range of 51 to 250 nM.

For the compound `Nc1ccc(N2CC[C@@H](N)C2)c(NC(=O)c2csc(-c3cnn(Cc4ccccn4)c3)n2)c1` [Compound 29, N-[5-amino-2-(3(R)-amino-1-pyrrolidinyl)phenyl]-2-[1-(2-pyridinylmethyl)-1H-pyrazol-4-yl]-4-thiazolecarboxamide], the concentration for half-maximal inhibition (IC50) was 51 to 250 nM.

As usually defined, the IC50 is the concentration at which inhibition is half-maximal.
